Source: article PMC10303271, “Synthesis and Receptor Binding Studies of α5 GABAAR Selective Novel Imidazodiazepines Targeted for Psychiatric and Cognitive Disorders” (Molecules, 2023)

Assays:
MOR = target: T1, MOR (Homo sapiens, UniProt P35372); assay: PDSP radioligand binding at MOR; conditions: 1.5 h; primary binding, 10,000 nM; last figure of the line = mean of the 4 before it; read-out: MOR, PDSP raw data, mean
T1 construct: purchased NIMH Psychoactive Drug Screening Program (PDSP)
Description: Opioid receptors are a family of inhibitory G-coupled protein receptors where opioids act as the ligand. The kappa opioid receptors (KOR), µ and δ opioid receptors (MOR and DOR), and nociception opioid receptor (NOP) fall under the family of opioids receptors. It has been reported that oxadiazole imidazodiazepines can mediate analgesic and anti-inflammatory properties mediated also by the κ opioid receptor (KOR). The binding at KOR is usually silent. The affinities of the test compounds for KOR, DOR, and MOR were determined using radioligand binding assays at a screening concentration of 10,000 nM in collaboration with the National Institute of Mental Health’s Psychoactive Drug Screening Program (PDSP), as mentioned before. Concentration-dependent experiments were conducted to determine Ki values for the compounds that exceeded more than 50% radioligand displacement in primary binding assays.
(§1) The NIMH PDSP assay protocol book [https://kidbdev.med.unc.edu/databases/PDSP%20Protocols%20II%202013-03-28.pdf accessed on 23 April 2023]. describes the protocols for primary and secondary radio-ligand binding assays. These assays were carried out in a final volume of 125 µL per well in the appropriate binding buffer.
(§2) The binding of a ligand to a receptor, ion channel, or transporter was determined in the […] of 10 µM of the appropriate reference compound. […] Plates were incubated in the dark for 90 min at rt, and the reactions were stopped by vacuum filtration onto 0.3% polyethyleneimine (PEI) soaked 96-well filter mats using a 96-well Filtermateharvester. This was followed by three washes with cold PBS buffer. Radioactivity was then counted on a Microbeta counter. Nonlinear regression was used to analyze the data with N = 6 replicates.

5-HT1A = target: T2, 5-HT1A (Homo sapiens, UniProt P08908); assay: PDSP primary binding 5-HT1A; conditions: 1.5 h; primary binding, 10,000 nM; last figure of the line = mean of the 4 before it; read-out: 5-HT1A, PDSP raw data, mean
T2 construct: purchased NIMH Psychoactive Drug Screening Program (PDSP)
T2 sequence (P08908 1-422): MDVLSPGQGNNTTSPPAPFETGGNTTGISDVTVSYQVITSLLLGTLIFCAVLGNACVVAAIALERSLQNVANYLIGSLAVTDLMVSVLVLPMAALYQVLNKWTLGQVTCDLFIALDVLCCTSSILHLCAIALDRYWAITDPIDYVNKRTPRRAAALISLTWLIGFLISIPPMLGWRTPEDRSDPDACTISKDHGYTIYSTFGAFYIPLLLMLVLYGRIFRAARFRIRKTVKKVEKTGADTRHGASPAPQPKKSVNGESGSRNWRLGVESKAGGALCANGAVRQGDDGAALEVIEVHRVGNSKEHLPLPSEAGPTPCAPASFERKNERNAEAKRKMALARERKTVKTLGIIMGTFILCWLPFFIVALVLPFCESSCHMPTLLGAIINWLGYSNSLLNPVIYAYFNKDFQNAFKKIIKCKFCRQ
Procedure: (§3) To determine if any off-target receptor-binding effects are present, all the novel ligands were sent to the National Institute of Mental Health (NIMH), Psychoactive Drug Screening Program (PDSP). The ligands were screened over a panel of 47 receptors, ion channels, and transporters to determine any other possible interactions with […]. The hERG-binding was also determined. […] No binding of the test compounds to calcium channels was observed. […] It is necessary to screen the compounds for hERG-binding during the early process of drug discovery. The unintentional binding of many drugs to hERG can cause blockade of hERG K+ channels in the heart, which can cause many side effects including cardiac arrhythmias and sudden death. […] All of the α5 imidazodiazepines were tested for hERG-binding.
as §1, §2

A2A = target: T3, A2A (Homo sapiens, UniProt P29274); assay: PDSP primary binding A2A; conditions: primary binding, 10,000 nM; last figure of the line = mean of the 4 before it
T3 construct: purchased NIMH Psychoactive Drug Screening Program (PDSP)
Procedure: as §3, §1, §2

Alpha1D = target: T4, Alpha1D (Homo sapiens, UniProt P25100); assay: PDSP primary binding Alpha1D; conditions: 1.5 h; primary binding, 10,000 nM; last figure of the line = mean of the 4 before it; read-out: Alpha1D, PDSP raw data, mean
T4 construct: purchased NIMH Psychoactive Drug Screening Program (PDSP)
T4 sequence (P25100 1-572): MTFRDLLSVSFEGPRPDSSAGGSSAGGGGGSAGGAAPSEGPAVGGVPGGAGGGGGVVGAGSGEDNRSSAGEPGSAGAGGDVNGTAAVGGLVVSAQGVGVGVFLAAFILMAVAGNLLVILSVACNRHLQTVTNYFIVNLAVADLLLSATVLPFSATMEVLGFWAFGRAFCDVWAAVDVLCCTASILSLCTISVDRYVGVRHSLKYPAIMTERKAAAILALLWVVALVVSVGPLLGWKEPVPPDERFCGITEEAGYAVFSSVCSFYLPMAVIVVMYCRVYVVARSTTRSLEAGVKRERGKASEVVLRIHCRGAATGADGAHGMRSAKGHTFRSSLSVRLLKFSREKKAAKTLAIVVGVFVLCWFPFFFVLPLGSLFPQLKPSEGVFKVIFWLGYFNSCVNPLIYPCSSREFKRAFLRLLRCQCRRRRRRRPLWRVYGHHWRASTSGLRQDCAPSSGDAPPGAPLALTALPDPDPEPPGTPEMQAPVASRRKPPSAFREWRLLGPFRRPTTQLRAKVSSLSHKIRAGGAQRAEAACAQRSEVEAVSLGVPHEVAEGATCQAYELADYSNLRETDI
Procedure: as §3, §1, §2

Alpha2B = target: T5, Alpha2B (Homo sapiens, UniProt P18089); assay: PDSP primary binding Alpha2B; conditions: 1.5 h; primary binding, 10,000 nM; last figure of the line = mean of the 4 before it; read-out: Alpha2B, PDSP raw data, mean
T5 construct: purchased NIMH Psychoactive Drug Screening Program (PDSP)
T5 sequence (P18089 1-450): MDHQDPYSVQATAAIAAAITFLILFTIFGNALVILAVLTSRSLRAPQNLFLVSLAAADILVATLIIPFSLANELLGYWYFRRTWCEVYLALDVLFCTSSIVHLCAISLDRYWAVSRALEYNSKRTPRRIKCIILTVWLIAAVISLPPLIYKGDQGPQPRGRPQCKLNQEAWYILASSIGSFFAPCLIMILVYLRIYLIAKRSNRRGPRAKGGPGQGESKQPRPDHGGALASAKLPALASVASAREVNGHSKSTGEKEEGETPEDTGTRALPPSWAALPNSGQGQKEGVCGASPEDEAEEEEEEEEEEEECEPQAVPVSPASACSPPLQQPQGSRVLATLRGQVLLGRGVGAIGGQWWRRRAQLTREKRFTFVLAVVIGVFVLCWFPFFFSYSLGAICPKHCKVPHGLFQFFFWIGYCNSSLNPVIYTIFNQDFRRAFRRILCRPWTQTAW
Procedure: as §3, §1, §2

D5 = target: T6, D5 (Homo sapiens, UniProt P21918); assay: PDSP primary binding D5; conditions: 1.5 h; primary binding, 10,000 nM; last figure of the line = mean of the 4 before it; read-out: D5, PDSP raw data, mean
T6 construct: purchased NIMH Psychoactive Drug Screening Program (PDSP)
Procedure: as §3, §1, §2

T6 sequence (P21918 whole entry): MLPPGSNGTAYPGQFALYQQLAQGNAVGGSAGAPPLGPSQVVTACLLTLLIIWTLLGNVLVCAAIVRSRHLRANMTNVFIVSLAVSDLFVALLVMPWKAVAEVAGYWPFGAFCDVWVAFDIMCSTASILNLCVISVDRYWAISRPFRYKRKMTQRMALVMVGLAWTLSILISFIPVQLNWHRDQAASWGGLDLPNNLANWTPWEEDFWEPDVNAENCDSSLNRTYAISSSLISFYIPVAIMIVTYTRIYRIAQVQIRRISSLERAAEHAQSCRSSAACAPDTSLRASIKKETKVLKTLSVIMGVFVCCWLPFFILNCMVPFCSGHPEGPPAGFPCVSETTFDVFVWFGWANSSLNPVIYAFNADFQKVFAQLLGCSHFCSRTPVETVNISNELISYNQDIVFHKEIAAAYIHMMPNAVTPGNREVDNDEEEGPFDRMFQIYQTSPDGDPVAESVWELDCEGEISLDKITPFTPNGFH
T3 sequence (P29274 whole entry): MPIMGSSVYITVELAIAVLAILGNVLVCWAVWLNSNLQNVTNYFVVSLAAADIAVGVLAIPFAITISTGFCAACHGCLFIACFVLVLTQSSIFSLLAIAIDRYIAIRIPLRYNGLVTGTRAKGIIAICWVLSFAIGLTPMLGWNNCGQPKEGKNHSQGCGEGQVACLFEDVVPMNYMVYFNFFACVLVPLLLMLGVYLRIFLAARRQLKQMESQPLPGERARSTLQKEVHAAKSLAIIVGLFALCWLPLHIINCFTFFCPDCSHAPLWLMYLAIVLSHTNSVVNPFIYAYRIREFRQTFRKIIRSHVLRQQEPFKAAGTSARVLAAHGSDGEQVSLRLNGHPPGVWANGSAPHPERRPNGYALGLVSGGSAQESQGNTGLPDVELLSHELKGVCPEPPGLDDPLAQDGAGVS
T1 sequence (P35372 whole entry): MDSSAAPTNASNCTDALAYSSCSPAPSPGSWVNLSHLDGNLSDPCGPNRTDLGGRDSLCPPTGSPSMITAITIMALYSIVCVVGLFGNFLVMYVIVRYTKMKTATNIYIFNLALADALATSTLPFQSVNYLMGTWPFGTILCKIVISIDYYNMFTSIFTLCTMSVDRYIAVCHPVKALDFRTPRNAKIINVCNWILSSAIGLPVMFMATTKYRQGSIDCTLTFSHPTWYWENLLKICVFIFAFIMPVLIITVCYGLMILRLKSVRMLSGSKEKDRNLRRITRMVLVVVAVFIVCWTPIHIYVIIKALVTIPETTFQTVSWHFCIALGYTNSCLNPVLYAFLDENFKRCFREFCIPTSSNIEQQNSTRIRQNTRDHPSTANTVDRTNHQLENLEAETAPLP

CCc1noc(-c2ncn3c2[C@@H](C)N=C(c2ccccc2F)c2cc(C4CC4)ccc2-3)n1 [Compound 46, (R)-5-(8-Cyclopropyl-6-(2′-fluorophenyl)-4-methyl-4H-benzo[f]imidazo[1,5-a][1,4]diazepin-3-yl)-3-ethyl-1,2,4-oxadiazole]
inhibition at 10 µM (MOR): 25.1%
inhibition at 10 µM (5-HT1A): 17.8%
A2A, PDSP raw data, mean (A2A): 27.25%
inhibition at 10 µM (Alpha1D): 34.9%
inhibition at 10 µM (Alpha2B): 44.2%
inhibition at 10 µM (D5): 51.2%
